From patent US8748130B2, “Human papillomavirus / Ii-Key hybrids and methods of use” (priority 2008, dated 2014)

Tested on: HPV11-specific CTL activity
Assay: In vivo CTL assay (CFSE-labelled target cells) after co-immunization with CTL epitope HPV11
Design: species or system HLA-DR4-tg mice
Conditions: 3 weeks
Experimental: HLA-DR4-tg mice were immunized with no peptide (A); 60 nmole of HPV11 (HPV16 E7 (49-57) an H-2D^b-restricted CTL epitope) (B); 60 nmole of HPV11 plus 15 nmole HPV4 hybrid (C); 60 nmole of HPV11 plus 30 nmole HPV4 hybrid (D); or 60 nmole of HPV11 plus 60 nmole HPV4 hybrid (E). Peptides were mixed with 20 μg of CpG and then emulsified in an equal volume of IFA in a total volume of 150 μl/mouse. Three weeks after immunization, HPV11-specific CTL activity was measured in an in vivo assay whereby the cells were incubated with either the immunizing peptide (HPV11) and a high concentration of CFSE or no peptide and a low concentration of CFSE. Equal numbers of the two cell populations were mixed and injected by tail vein into mice. The top figure indicates the percentage of HPV11-specific CTL killing as determined by the ratio of CFSE^low to CFSE^high cells using the formula 1—CFSE^low/CFSE^high following flowcytometry. The histograms for each group are shown below. The data shown are from pooled splenocytes (2 mice per group).
HLA-DR4-tg mice were immunized with no peptide (A); 60 nmole of HPV11 (HPV16 E7 (49-57), an H-2D^b-restricted CTL epitope) (B); 30 nmole HPV1 plus 60 nmole HPV11 (C); or 30 nmole HPV4 plus 60 nmole HPV11. The peptides were administered as indicated for FIG. 3. Three weeks after immunization, HPV11-specific CTL activity was measured in an in vivo assay (see FIG. 3). […]

rahynivtf (RAHYNIVTF; Human papillomavirus type 16) [HPV11]
HPV11-specific CTL killing (%) (Table 5: 60 nmole HPV11 alone, CpG + IFA, pooled splenocytes (2 mice per group)): 19% | HPV11-specific CTL activity (%) (Table 6: 60 nmole HPV11 alone or with 30 nmole HPV1 or HPV4, CpG + IFA, pooled splenic cells): 14%
